Data on four molecules can be found in ChEMBL document CHEMBL1126603, “Synthesis and pharmacokinetics of a dihydropyridine chemical delivery system for the antiimmunodeficiency virus agent dideoxycytidine” (J Med Chem, 1993).

This assay concerns MT4. Kind of assay: Growth inhibition of HIV-1 in human lymphocyte MT-4 cells. The class given is functional, cell-based.

The molecule `CN1C=CCC(C(=O)Nc2ccn(C3CCC(COC(=O)C4=CN(C)C=CC4)O3)c(=O)n2)=C1` (centres undefined) showed a 50% inhibitory concentration (IC50) of 1900 nM. Then `Nc1ccn([C@H]2CC[C@@H](CO)O2)c(=O)n1` (stereo in doubt; form 1) [ZALCITABINE], with 1000 nM; and `CN1C=CCC(C(=O)Nc2ccn(C3CCC(CO)O3)c(=O)n2)=C1` (centres undefined), with 1200 nM; and `CN1C=CCC(C(=O)OCC2CCC(n3ccc(N)nc3=O)O2)=C1` (centres undefined), with 1200 nM.
